± gives the uncertainty stated by the source.
Experiment: xn = mol fraction of the nth substance listed

CC[n+]1ccn(C)c1.F[B-](F)(F)F + CO
viscosity [mPa·s], 101 kPa
Conditions | x1 = 0.0999 | x1 = 0.2 | x1 = 0.3 | x1 = 0.3996 | x1 = 0.5005 | x1 = 0.5973 | x1 = 0.7011 | x1 = 0.8013 | x1 = 0.8995 | x1 = 1
303.15 K | 0.945 ± 0.095 | 1.6 ± 0.16 | 2.45 ± 0.25 | 3.62 ± 0.36 | 5.25 ± 0.53 | 7.32 ± 0.73 | 10.4 ± 1 | 14.5 ± 1.5 | 20 ± 2 | 28 ± 2.8
313.15 K | 0.822 ± 0.082 | 1.36 ± 0.14 | 2.08 ± 0.21 | 3.03 ± 0.3 | 4.34 ± 0.44 | 5.96 ± 0.6 | 8.24 ± 0.83 | 11.2 ± 1.1 | 15.1 ± 1.5 | 20.4 ± 2.1
323.15 K | 0.718 ± 0.072 | 1.19 ± 0.12 | 1.79 ± 0.18 | 2.6 ± 0.26 | 3.67 ± 0.37 | 4.96 ± 0.5 | 6.82 ± 0.68 | 8.97 ± 0.9 | 11.7 ± 1.2 | 15.3 ± 1.5
333.15 K | 0.636 ± 0.064 | 1.06 ± 0.11 | 1.6 ± 0.16 | 2.3 ± 0.23 | 3.24 ± 0.32 | 4.25 ± 0.43 | 5.74 ± 0.58 | 7.47 ± 0.75 | 9.43 ± 0.95 | 12.1 ± 1.2

CC[n+]1ccn(C)c1.COP(=O)([O-])OC + CO
101 kPa
Conditions | viscosity [mPa·s]
298.15 K, x2 = 0.598 | 20.62 ± 0.24
318.15 K, x2 = 0.799 | 3.265 ± 0.039
328.15 K, x2 = 0.399 | 20.82 ± 0.23
333.15 K, x2 = 0.399 | 18.06 ± 0.18

OC[C@@H](O)[C@@H](O)[C@H](O)[C@@H](O)CO + CC(=O)[O-].CC[n+]1ccn(C)c1
303.15 K, 100 kPa
Conditions | viscosity [mPa·s]
x1 = 0.1894 | 283 ± 14
x1 = 0.5836 | 2256 ± 140

CC[n+]1ccn(C)c1.O=S(=O)([N-]S(=O)(=O)C(F)(F)F)C(F)(F)F + CC[n+]1ccn(C)c1.F[B-](F)(F)F
100 kPa
Conditions | electrical conductivity [S/m] | viscosity [mPa·s]
243.15 K, x1 = 0.2 | 0.039 ± 0.004 | –
243.15 K, x1 = 0.3 | 0.043 ± 0.005 | –
243.15 K, x1 = 0.4 | 0.033 ± 0.004 | –
243.15 K, x1 = 0.5 | 0.038 ± 0.004 | –
243.15 K, x1 = 0.6 | 0.023 ± 0.002 | –
243.15 K, x1 = 0.7 | 0.046 ± 0.006 | –
243.15 K, x1 = 0.8 | 0.028 ± 0.003 | –
243.15 K, x1 = 1 | 0.011 ± 0.001 | –
248.15 K, x1 = 0.2 | 0.062 ± 0.007 | –
248.15 K, x1 = 0.3 | 0.068 ± 0.007 | –
248.15 K, x1 = 0.4 | 0.053 ± 0.006 | –
248.15 K, x1 = 0.5 | 0.06 ± 0.006 | –
248.15 K, x1 = 0.6 | 0.039 ± 0.004 | –
248.15 K, x1 = 0.7 | 0.072 ± 0.008 | –
248.15 K, x1 = 0.8 | 0.045 ± 0.005 | –
248.15 K, x1 = 1 | 0.019 ± 0.002 | –
253.15 K, x1 = 0.2 | 0.094 ± 0.01 | 478 ± 58
253.15 K, x1 = 0.3 | 0.102 ± 0.011 | 485 ± 59
253.15 K, x1 = 0.4 | 0.081 ± 0.009 | 468 ± 57
253.15 K, x1 = 0.5 | 0.09 ± 0.009 | 460 ± 56
253.15 K, x1 = 0.6 | 0.061 ± 0.006 | –
253.15 K, x1 = 0.7 | 0.107 ± 0.011 | 435 ± 52
253.15 K, x1 = 0.8 | 0.069 ± 0.007 | 403 ± 48
253.15 K, x1 = 1 | 0.031 ± 0.003 | 350 ± 41
258.15 K, x1 = 0.2 | 0.136 ± 0.014 | –
258.15 K, x1 = 0.3 | 0.146 ± 0.015 | –
258.15 K, x1 = 0.4 | 0.118 ± 0.012 | –
258.15 K, x1 = 0.5 | 0.13 ± 0.014 | –
258.15 K, x1 = 0.6 | 0.091 ± 0.01 | –
258.15 K, x1 = 0.7 | 0.152 ± 0.016 | –
258.15 K, x1 = 0.8 | 0.099 ± 0.01 | –
258.15 K, x1 = 1 | 0.047 ± 0.005 | –
263.15 K, x1 = 0.2 | 0.19 ± 0.02 | 226 ± 25
263.15 K, x1 = 0.3 | 0.202 ± 0.021 | 229 ± 25
263.15 K, x1 = 0.4 | 0.166 ± 0.017 | 222 ± 24
263.15 K, x1 = 0.5 | 0.18 ± 0.019 | 220 ± 24
263.15 K, x1 = 0.6 | 0.131 ± 0.014 | –
263.15 K, x1 = 0.7 | 0.208 ± 0.021 | 208 ± 23
263.15 K, x1 = 0.8 | 0.138 ± 0.014 | 193 ± 21
263.15 K, x1 = 1 | 0.07 ± 0.007 | 173 ± 18
268.15 K, x1 = 0.2 | 0.255 ± 0.026 | –
268.15 K, x1 = 0.3 | 0.27 ± 0.028 | –
268.15 K, x1 = 0.4 | 0.226 ± 0.023 | –
268.15 K, x1 = 0.5 | 0.242 ± 0.025 | –
268.15 K, x1 = 0.6 | 0.18 ± 0.019 | –
268.15 K, x1 = 0.7 | 0.276 ± 0.028 | –
268.15 K, x1 = 0.8 | 0.186 ± 0.019 | –
268.15 K, x1 = 1 | 0.099 ± 0.01 | –
273.15 K, x1 = 0.2 | 0.334 ± 0.034 | 122 ± 13
273.15 K, x1 = 0.3 | 0.351 ± 0.036 | 124 ± 13
273.15 K, x1 = 0.4 | 0.298 ± 0.03 | 120 ± 13
273.15 K, x1 = 0.5 | 0.316 ± 0.032 | 120 ± 12
273.15 K, x1 = 0.6 | 0.241 ± 0.025 | –
273.15 K, x1 = 0.7 | 0.357 ± 0.036 | 114 ± 12
273.15 K, x1 = 0.8 | 0.243 ± 0.025 | 105 ± 11
273.15 K, x1 = 1 | 0.135 ± 0.014 | 96.5 ± 9.8
278.15 K, x1 = 0.2 | 0.427 ± 0.043 | –
278.15 K, x1 = 0.3 | 0.445 ± 0.045 | –
278.15 K, x1 = 0.4 | 0.383 ± 0.039 | –
278.15 K, x1 = 0.5 | 0.403 ± 0.041 | –
278.15 K, x1 = 0.6 | 0.314 ± 0.032 | –
278.15 K, x1 = 0.7 | 0.452 ± 0.046 | –
278.15 K, x1 = 0.8 | 0.31 ± 0.032 | –
278.15 K, x1 = 1 | 0.179 ± 0.018 | –
283.15 K, x1 = 0.2 | 0.533 ± 0.054 | 72.6 ± 7.3
283.15 K, x1 = 0.3 | 0.553 ± 0.056 | 74 ± 7.5
283.15 K, x1 = 0.4 | 0.481 ± 0.049 | 72.4 ± 7.3
283.15 K, x1 = 0.5 | 0.503 ± 0.051 | 72.1 ± 7.3
283.15 K, x1 = 0.6 | 0.4 ± 0.041 | –
283.15 K, x1 = 0.7 | 0.559 ± 0.057 | 69.1 ± 6.9
283.15 K, x1 = 0.8 | 0.388 ± 0.039 | 63.8 ± 6.4
283.15 K, x1 = 1 | 0.232 ± 0.024 | 59.3 ± 5.9
288.15 K, x1 = 0.2 | 0.654 ± 0.066 | –
288.15 K, x1 = 0.3 | 0.674 ± 0.068 | –
288.15 K, x1 = 0.4 | 0.594 ± 0.06 | –
288.15 K, x1 = 0.5 | 0.617 ± 0.062 | –
288.15 K, x1 = 0.6 | 0.499 ± 0.051 | –
288.15 K, x1 = 0.7 | 0.68 ± 0.069 | –
288.15 K, x1 = 0.8 | 0.475 ± 0.048 | –
288.15 K, x1 = 1 | 0.294 ± 0.03 | –
293.15 K, x1 = 0.2 | 0.79 ± 0.08 | 46.7 ± 4.7
293.15 K, x1 = 0.3 | 0.81 ± 0.082 | 47.9 ± 4.8
293.15 K, x1 = 0.4 | 0.721 ± 0.073 | 47 ± 4.7
293.15 K, x1 = 0.5 | 0.744 ± 0.075 | 47 ± 4.7
293.15 K, x1 = 0.6 | 0.612 ± 0.062 | –
293.15 K, x1 = 0.7 | 0.815 ± 0.082 | 45.3 ± 4.5
293.15 K, x1 = 0.8 | 0.574 ± 0.058 | 41.7 ± 4.2
293.15 K, x1 = 1 | 0.365 ± 0.037 | 39.2 ± 3.9
298.15 K, x1 = 0.2 | 0.939 ± 0.094 | –
298.15 K, x1 = 0.3 | 0.958 ± 0.096 | –
298.15 K, x1 = 0.4 | 0.862 ± 0.087 | –
298.15 K, x1 = 0.5 | 0.885 ± 0.089 | –
298.15 K, x1 = 0.6 | 0.738 ± 0.076 | –
298.15 K, x1 = 0.7 | 0.963 ± 0.096 | –
298.15 K, x1 = 0.8 | 0.682 ± 0.07 | –
298.15 K, x1 = 1 | 0.447 ± 0.045 | –
303.15 K, x1 = 0.2 | – | 32 ± 3.2
303.15 K, x1 = 0.3 | – | 33 ± 3.3
303.15 K, x1 = 0.4 | – | 32.5 ± 3.3
303.15 K, x1 = 0.5 | – | 32.5 ± 3.3
303.15 K, x1 = 0.7 | – | 31.5 ± 3.2
303.15 K, x1 = 0.8 | – | 29 ± 2.9
303.15 K, x1 = 1 | – | 27.4 ± 2.7
313.15 K, x1 = 0.2 | – | 23 ± 2.3
313.15 K, x1 = 0.3 | – | 23.9 ± 2.4
313.15 K, x1 = 0.4 | – | 23.6 ± 2.4
313.15 K, x1 = 0.5 | – | 23.6 ± 2.4
313.15 K, x1 = 0.7 | – | 23 ± 2.3
313.15 K, x1 = 0.8 | – | 21.1 ± 2.1
313.15 K, x1 = 1 | – | 20.1 ± 2
323.15 K, x1 = 0.2 | – | 17.3 ± 1.7
323.15 K, x1 = 0.3 | – | 18 ± 1.8
323.15 K, x1 = 0.4 | – | 17.8 ± 1.8
323.15 K, x1 = 0.5 | – | 17.8 ± 1.8
323.15 K, x1 = 0.7 | – | 17.5 ± 1.8
323.15 K, x1 = 0.8 | – | 16 ± 1.6
323.15 K, x1 = 1 | – | 15.3 ± 1.5
333.15 K, x1 = 0.2 | – | 13.4 ± 1.3
333.15 K, x1 = 0.3 | – | 14.1 ± 1.4
333.15 K, x1 = 0.4 | – | 13.9 ± 1.4
333.15 K, x1 = 0.5 | – | 13.9 ± 1.4
333.15 K, x1 = 0.7 | – | 13.8 ± 1.4
333.15 K, x1 = 0.8 | – | 12.6 ± 1.3
333.15 K, x1 = 1 | – | 12.1 ± 1.2

Reference: the CheMixHub ionic liquid set
